From patent publication US7037495B1, “Antimicrobial compositions” (priority 1999, dated 2006)

Key:
Format in all cases: cell-based, Escherichia coli
TOP10 E. coli + bcrA [1] = test: MIC determination by microtitre broth dilution method, TOP10 E. coli + bcrA; conditions: for Growth of TOP10 E. coli + bcrA: 24 h at 37° C.
Description: (§1) MIC Determination by Microtitre Broth Dilution Method
(§2) TOP10 E. coli with or without (O) bcrA were grown to a concentration of 2×10^4 cfu/ml (bcrA+was grown in the presence of 100 μg/ml ampicillin to select for the pBAD-TOPO vector) in RPMI medium (Sigma) in the presence of 0.002% L-arabinose, as the inducer of the bcrA gene. 100 μl TOP10 E. coli±bcrA was dispensed into 96 well microtitre plate (Sigma) to give a final concentration of 1×10^4 cfu/ml. […] The plates were incubated for 24 h at 37° C. and scored by growth or no growth.

TOP10 E. coli − bcrA = test: MIC determination by microtitre broth dilution method, TOP10 E. coli − bcrA; conditions: 24 h at 37° C.
Description: as §1, §2

TOP10 E. coli + bcrA [2] = test: Phage clone activity against resistance of TOP10 E. coli + bcrA to nalidixic acid; conditions: for Nalidixic acid MIC: in the presence of phage (neat and diluted 1:10), TOP10 E. coli + bcrA, 24 h at 37° C.
Description: TOP10 E. coli+bcrA were grown to a concentration of 2×10^4 cfu/ml in RPMI medium (Sigma) containing 100 μg/ml ampicillin (to select for the pBAD-TOPO vector) in the presence of 0.002% L-arabinose, as the inducer of the bcrA gene. 100 μl TOP10 E. coli+bcrA, at a final concentration of 1×10^4 cfu/ml, were dispensed into 96 well microtitre plate (Sigma) in the presence of neat phage and phage diluted 1:10 (see table below). Serial doubling dilutions nalidixic acid was added to each well, with the concentration ranging from 128 to 0.25 μg/ml. A control with just the media was set up. The plates were incubated for 24 h at 37° C. Six phage clones were tested.

[3] = TOP10 E. coli + bcrA versus − bcrA

Compound | Growth of TOP10 E. coli + bcrA (TOP10 E. coli + bcrA [1]; antibiotic 0.125 μg/ml) | Growth of TOP10 E. coli + bcrA (TOP10 E. coli + bcrA [1]; antibiotic 0.25 μg/ml) | Growth of TOP10 E. coli + bcrA (TOP10 E. coli + bcrA [1]; antibiotic 0.5 μg/ml) | Growth of TOP10 E. coli + bcrA (TOP10 E. coli + bcrA [1]; antibiotic 1 μg/ml) | Growth of TOP10 E. coli + bcrA (TOP10 E. coli + bcrA [1]; antibiotic 2 μg/ml) | Growth of TOP10 E. coli + bcrA (TOP10 E. coli + bcrA [1]; antibiotic 4 μg/ml) | Growth of TOP10 E. coli + bcrA (TOP10 E. coli + bcrA [1]; antibiotic 8 μg/ml) | Growth of TOP10 E. coli + bcrA (TOP10 E. coli + bcrA [1]; antibiotic 16 μg/ml) | Growth of TOP10 E. coli + bcrA (TOP10 E. coli + bcrA [1]; antibiotic 32 μg/ml) | Growth of TOP10 E. coli + bcrA (TOP10 E. coli + bcrA [1]; antibiotic 64 μg/ml) | Growth of TOP10 E. coli + bcrA (TOP10 E. coli + bcrA [1]; antibiotic 128 μg/ml) | Growth of TOP10 E. coli − bcrA (TOP10 E. coli − bcrA; antibiotic 0.125 μg/ml) | Growth of TOP10 E. coli − bcrA (TOP10 E. coli − bcrA; antibiotic 0.25 μg/ml) | Growth of TOP10 E. coli − bcrA (TOP10 E. coli − bcrA; antibiotic 0.5 μg/ml) | Growth of TOP10 E. coli − bcrA (TOP10 E. coli − bcrA; antibiotic 1 μg/ml) | Growth of TOP10 E. coli − bcrA (TOP10 E. coli − bcrA; antibiotic 2 μg/ml) | Growth of TOP10 E. coli − bcrA (TOP10 E. coli − bcrA; antibiotic 4 μg/ml) | Growth of TOP10 E. coli − bcrA (TOP10 E. coli − bcrA; antibiotic 8 μg/ml) | Growth of TOP10 E. coli − bcrA (TOP10 E. coli − bcrA; antibiotic 16 μg/ml) | Growth of TOP10 E. coli − bcrA (TOP10 E. coli − bcrA; antibiotic 32 μg/ml) | other results
CCn1cc(C(=O)O)c(=O)c2ccc(C)nc21 [Nalidixic Acid] | + | + | + | + | + | + | + | − | − | − | − | + | + | + | + | + | − | − | − | − | difference in MIC in TOP10 E. coli ± bcrA (TOP10 E. coli + bcrA [1]; TOP10 E. coli + bcrA versus − bcrA, doubling dilutions): three well difference; Growth of TOP10 E. coli − bcrA (TOP10 E. coli − bcrA; antibiotic 64 μg/ml): −; Growth of TOP10 E. coli − bcrA (TOP10 E. coli − bcrA; antibiotic 128 μg/ml): −; MIC (TOP10 E. coli + bcrA [2]; Escherichia coli, 24 h, read-out: Nalidixic acid MIC): 16 µg/mL
SVVIFPLWQTVMGYT [Peptide 2] |  |  |  |  |  |  |  |  |  |  |  |  |  |  |  |  |  |  |  |  | Nalidixic acid MIC (TOP10 E. coli + bcrA [2]): 16 µg/mL
O=C(O)c1cn(C2CC2)c2cc(N3CCNCC3)c(F)cc2c1=O [Ciprofloxacin] | + | − | − | − | − | − | − | − | − | − | − | + | − | − | − | − | − | − | − | − | resistance conferred by the bcrA gene in TOP10 E. coli (TOP10 E. coli + bcrA [1]; [3]): No resistance; Growth of TOP10 E. coli − bcrA (TOP10 E. coli − bcrA; antibiotic 64 μg/ml): −; Growth of TOP10 E. coli − bcrA (TOP10 E. coli − bcrA; antibiotic 128 μg/ml): −
CN(C)[C@@H]1C(O)=C(C(N)=O)C(=O)[C@@]2(O)C(O)=C3C(=O)c4c(O)cccc4[C@@](C)(O)[C@H]3C[C@@H]12 [Tetracycline] | + | + | + | + | + | + | − | − | − | − | − | + | + | + | + | + | − | − | − | − | Growth of TOP10 E. coli − bcrA (TOP10 E. coli − bcrA; antibiotic 64 μg/ml): −; Growth of TOP10 E. coli − bcrA (TOP10 E. coli − bcrA; antibiotic 128 μg/ml): −
HRLDRMVASFAFHR [Peptide 3] |  |  |  |  |  |  |  |  |  |  |  |  |  |  |  |  |  |  |  |  | Nalidixic acid MIC (TOP10 E. coli + bcrA [2]): 8 µg/mL
AIISFGFMAFFGSVV [Peptide 1] |  |  |  |  |  |  |  |  |  |  |  |  |  |  |  |  |  |  |  |  | Nalidixic acid MIC (TOP10 E. coli + bcrA [2]): 2 µg/mL
N=C(NCCCCCCNC(=N)NC(=N)Nc1ccc(Cl)cc1)NC(=N)Nc1ccc(Cl)cc1 [Chlorohexadine] | + | + | + | + | + | + | + | − | − | − | − | + | + | + | + | + | + | + | − | − | resistance conferred by the bcrA gene in TOP10 E. coli (TOP10 E. coli + bcrA [1]; [3]): No resistance; Growth of TOP10 E. coli − bcrA (TOP10 E. coli − bcrA; antibiotic 64 μg/ml): −; Growth of TOP10 E. coli − bcrA (TOP10 E. coli − bcrA; antibiotic 128 μg/ml): −
